From ChEMBL document CHEMBL1158556, “Design of pentapeptidic BACE1 inhibitors with carboxylic acid bioisosteres at P1' and P4 positions” (Bioorg Med Chem, 2010)

Columns and labels:
Beta-secretase 1 [1] = target: T1, Beta-secretase 1 (Homo sapiens, UniProt P56817); assay: Inhibition of human BACE1 by FRET assay
Beta-secretase 1 [2] = target: T1, Beta-secretase 1; assay: Inhibition of human BACE1 at 2 uM by FRET assay
Beta-secretase 1 [3] = target: T1, Beta-secretase 1; assay: Inhibition of human BACE1 at 0.2 uM by FRET assay

T1 sequence (P56817 whole entry): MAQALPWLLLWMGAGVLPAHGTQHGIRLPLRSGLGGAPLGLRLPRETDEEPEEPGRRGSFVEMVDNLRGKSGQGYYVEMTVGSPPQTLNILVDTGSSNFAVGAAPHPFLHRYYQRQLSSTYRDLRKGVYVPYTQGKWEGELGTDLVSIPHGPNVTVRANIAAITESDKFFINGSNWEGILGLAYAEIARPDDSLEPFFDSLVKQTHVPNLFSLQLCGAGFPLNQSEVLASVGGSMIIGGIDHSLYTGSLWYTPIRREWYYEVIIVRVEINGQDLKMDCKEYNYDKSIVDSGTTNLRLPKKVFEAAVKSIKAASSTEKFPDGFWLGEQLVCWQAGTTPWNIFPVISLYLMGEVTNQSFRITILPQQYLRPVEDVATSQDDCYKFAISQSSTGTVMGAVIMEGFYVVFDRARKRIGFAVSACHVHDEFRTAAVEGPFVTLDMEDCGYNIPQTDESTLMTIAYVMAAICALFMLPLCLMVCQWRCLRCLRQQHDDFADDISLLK

Row | SMILES | IC50 (Beta-secretase 1 [1]) [nM] | inhibition (Beta-secretase 1 [2]) [%] | inhibition (Beta-secretase 1 [3]) [%]
1 | CC(C)C[C@H](NC(=O)[C@@H](NC(=O)[C@@H](N)CNC(=O)c1cc(O)ccc1O)C(C)C)C(=O)N[C@@H](Cc1ccccc1)[C@@H](O)C(=O)Nc1cccc(-c2nc(=O)o[nH]2)c1 | 10 |  | 
2 | CC(C)C[C@H](NC(=O)[C@@H](NC(=O)[C@@H](N)CNC(=O)c1[nH]c(=O)[nH]c(=O)c1F)C(C)C)C(=O)N[C@@H](Cc1ccccc1)[C@@H](O)C(=O)Nc1cccc(-c2n[nH]c(=S)n2C)c1 |  | 99 | 92
3 | CC(C)C[C@H](NC(=O)[C@@H](NC(=O)[C@@H](N)CNC(=O)c1nn[nH]n1)C(C)C)C(=O)N[C@@H](Cc1ccccc1)[C@@H](O)C(=O)Nc1cccc(-c2nn[nH]n2)c1 |  | > 99 | 
4 | CC(C)C[C@H](NC(=O)[C@@H](NC(=O)[C@@H](N)CNC(=O)c1[nH]c(=O)[nH]c(=O)c1F)C(C)C)C(=O)N[C@@H](Cc1ccccc1)[C@@H](O)C(=O)Nc1cccc(-c2noc(=O)[nH]2)c1 | 7.9 | > 99 | 96
5 | CC(C)C[C@H](NC(=O)[C@@H](NC(=O)[C@@H](N)CNC(=O)c1cc(O)ccc1O)C(C)C)C(=O)N[C@@H](Cc1ccccc1)[C@@H](O)C(=O)Nc1cccc(-c2nc(=S)o[nH]2)c1 | 10.6 |  | 
6 | CC(C)C[C@H](NC(=O)[C@@H](NC(=O)[C@@H](N)CNC(=O)c1cc(O)ccc1O)C(C)C)C(=O)N[C@@H](Cc1ccccc1)[C@@H](O)C(=O)Nc1cccc(-c2n[nH]c(=S)o2)c1 |  | 99 | 89
7 | CC(C)C[C@H](NC(=O)[C@@H](NC(=O)[C@@H](N)CNC(=O)c1[nH]c(=O)[nH]c(=O)c1F)C(C)C)C(=O)N[C@@H](Cc1ccccc1)[C@@H](O)C(=O)Nc1cccc(-c2noc(=S)[nH]2)c1 | 10.2 | > 99 | 95
8 | CC(C)C[C@H](NC(=O)[C@@H](NC(=O)[C@@H](N)CNC(=O)c1c[nH]cn1)C(C)C)C(=O)N[C@@H](Cc1ccccc1)[C@@H](O)C(=O)Nc1cccc(-c2nn[nH]n2)c1 |  | 87 | 50
9 | CC(C)[C@H](NC(=O)[C@@H](N)CNC(=O)c1nn[nH]n1)C(=O)N[C@@H](CC1CCCCC1)C(=O)N[C@@H](Cc1ccccc1)[C@@H](O)C(=O)Nc1cccc(-c2nn[nH]n2)c1 |  | > 99 | 
10 | CC(C)C[C@H](NC(=O)[C@@H](NC(=O)[C@@H](N)CNC(=O)c1[nH]c(=O)[nH]c(=O)c1F)C(C)C)C(=O)N[C@@H](Cc1ccccc1)[C@@H](O)C(=O)Nc1cccc(-c2nn[nH]n2)c1 |  | > 99 | 
11 | CC(C)[C@H](NC(=O)[C@@H](N)CNC(=O)c1[nH]c(=O)[nH]c(=O)c1F)C(=O)N[C@@H](CC1CCCCC1)C(=O)N[C@@H](Cc1ccccc1)[C@@H](O)C(=O)Nc1cccc(-c2nn[nH]n2)c1 |  | > 99 | 
12 | CC(C)C[C@H](NC(=O)[C@@H](NC(=O)[C@@H](N)CNC(=O)c1nc[nH]n1)C(C)C)C(=O)N[C@@H](Cc1ccccc1)[C@@H](O)C(=O)Nc1cccc(-c2nn[nH]n2)c1 |  | 91 | 58
13 | CC(C)[C@H](NC(=O)[C@@H](N)CNC(=O)c1nc[nH]n1)C(=O)N[C@@H](CC1CCCCC1)C(=O)N[C@@H](Cc1ccccc1)[C@@H](O)C(=O)Nc1cccc(-c2nn[nH]n2)c1 |  | 94 | 69
14 | CC(C)[C@H](NC(=O)[C@@H](N)CNC(=O)c1c[nH]cn1)C(=O)N[C@@H](CC1CCCCC1)C(=O)N[C@@H](Cc1ccccc1)[C@@H](O)C(=O)Nc1cccc(-c2nn[nH]n2)c1 |  | 83 | 45
15 | CC(C)C[C@H](NC(=O)[C@@H](NC(=O)[C@@H](N)CNC(=O)c1cc(O)ccc1O)C(C)C)C(=O)N[C@@H](Cc1ccccc1)[C@@H](O)C(=O)Nc1cccc(-c2noc(=S)[nH]2)c1 |  | > 99 | 93
16 | CC(C)C[C@H](NC(=O)[C@@H](NC(=O)[C@@H](N)CNC(=O)c1cc(O)ccc1O)C(C)C)C(=O)N[C@@H](Cc1ccccc1)[C@@H](O)C(=O)Nc1cccc(-c2nsc(=O)[nH]2)c1 |  | 99 | 92
17 | CC(C)C[C@H](NC(=O)[C@@H](NC(=O)[C@@H](N)CNC(=O)c1cc(O)ccc1O)C(C)C)C(=O)N[C@@H](Cc1ccccc1)[C@@H](O)C(=O)Nc1cccc(-c2noc(=O)[nH]2)c1 |  | > 99 | 92
18 | CC(C)C[C@H](NC(=O)[C@@H](NC(=O)[C@@H](N)CNC(=O)c1[nH]c(=O)[nH]c(=O)c1F)C(C)C)C(=O)N[C@@H](Cc1ccccc1)[C@@H](O)C(=O)Nc1cccc(-c2nsc(=O)[nH]2)c1 |  | 99 | 93
19 | CC(C)C[C@H](NC(=O)[C@@H](NC(=O)[C@@H](N)CNC(=O)c1cc(O)ccc1O)C(C)C)C(=O)N[C@@H](Cc1ccccc1)[C@@H](O)C(=O)Nc1cccc(-c2n[nH]c(=S)n2C)c1 |  | 94 | 64
20 | CC(C)C[C@H](NC(=O)[C@@H](NC(=O)[C@@H](N)CNC(=O)c1[nH]c(=O)[nH]c(=O)c1F)C(C)C)C(=O)N[C@@H](Cc1ccccc1)[C@@H](O)C(=O)Nc1cccc(-c2n[nH]c(=S)o2)c1 |  | > 99 | 95
